The assay concerns 697B cells, BCR-induced NF-kB luciferase reporter luminescence. The assay can be described thus: B-cell receptor NF-kB reporter inhibition – 697B cells, luciferase luminescence, dose response (AID 489023).

The source made the active and inactive calls. No rule for the calls is given here.

For orientation: IC50 means the concentration that inhibits the measured activity by half. `Cc1ccc(/C=C2\SC(=S)N(CCCC(=O)Nc3ccccn3)C2=O)cc1`: the IC50 was 0.37 µM.

For the compound `CN1C(=O)CC(c2ccco2)Sc2ccccc21` (configuration not stated), the IC50 was > 80 µM (inactive).

Regarding `CCc1ccc(/C=C2\SC(=S)N(CCC(=O)Nc3cc(C)on3)C2=O)cc1`, the IC50 was 19.3 µM.

As to `COc1ccc(/C=C2\SC(=S)N(CCC(=O)Nc3ccc(C(=O)O)cc3)C2=O)cc1OC`, the IC50 was > 80 µM (inactive).

As for `N=c1ccn2c(n1)OC1C(O)C(CO)OC12` (configuration not stated), the IC50 was < 0.16 µM.

Consider `COc1ccc(-c2ccc(OC)c([C@H]3[C@H]4C=CC[C@@H](C)[C@@H]4C(=O)N3Cc3ccccc3)c2)cc1C`, for which the IC50 was > 80 µM (inactive).

In the case of `O=S(=O)(NCc1ccncc1)c1ccc(Br)s1`, the IC50 was > 80 µM (inactive).

For the compound `COC(=O)[C@@H]1Cc2c([nH]c3ccccc23)C(C)(C)N1C(=O)CCl`, the IC50 is 1.12 µM.

`COC(=O)c1c(NC(=O)c2cccc([N+](=O)[O-])c2)sc(C(N)=O)c1C`: the IC50 is 45.6 µM (inactive).

`Cc1noc(C)c1CSc1nc2[nH]ncc2c(=O)n1-c1ccccc1`: the IC50 was > 80 µM (inactive).

In the case of `CN(C)CCCN=Cc1c(-c2ccccc2)[nH]n(-c2nc3ccccc3s2)c1=O`, the IC50 was 5.81 µM.

As for `COCCNC(=O)CSCc1nc(-c2ccc(SC)cc2)oc1C`, the IC50 is 4.56 µM.

In the case of `Cc1nnc2c3ccccc3c(-c3ccccc3)nn12`, the IC50 was > 80 µM (inactive).

On to `COc1ccc(NC(=O)CN(C)C(=O)C2(c3ccccc3)CCCC2)cc1`, for which the IC50 is 3.56 µM.

Turning to `CC(C)(C)c1ccc(-c2noc(CCC(=O)NCC3CCCO3)n2)cc1` (configuration not stated), the IC50 was 0.21 µM.

Consider `COc1cc(C2C(C#N)=C(N)Oc3cc(N)ccc32)cc(OC)c1OC` (configuration not stated), for which the IC50 was > 80 µM (inactive).

For `CC(C)c1ccc(/C=C2\SC(=S)N(CCC(=O)N3CCCCC3CCO)C2=O)cc1` (configuration not stated), the IC50 was 1.63 µM.

Regarding `COc1ccc(C(=O)n2nc(-c3ccc(Cl)cc3)nc2N)cc1OC`, the IC50 is 1.29 µM.

Take `CCN(CC)S(=O)(=O)c1ccc(N2CCOCC2)c(NC(=O)c2[nH]c(C)c(C(C)=O)c2C)c1`: the IC50 was 27.3 µM (inactive).

Turning to `COCCCNC(=O)COc1ccc(-c2nccc(-c3ccccn3)n2)cc1`, the IC50 was 19.4 µM.

Take `CC1CCN(c2c(NCc3ccc(C(=O)N4c5ccccc5CC4C)cc3)c(=O)c2=O)CC1` (configuration not stated): the IC50 was > 80 µM (inactive).

Consider `Fc1ccc(C2=Nn3c(nnc3-c3n[nH]c4c3CCC4)SC2)cc1`, for which the IC50 was 34.6 µM (inactive).

For the compound `O=C(Nc1ccc(NC(=O)c2cc3ccccc3o2)cc1)c1ccc2c(c1)OCCO2`, the IC50 was 0.3 µM.

For the compound `COc1ccc(C(=O)Nc2ccccc2C(=O)NCc2ccco2)cc1OC`, the IC50 was > 80 µM (inactive).

On to `O=[N+]([O-])c1ccc(Sc2cc[n+]([O-])c3ccccc23)c([N+](=O)[O-])c1`, for which the IC50 is 0.59 µM.

On to `CC(C)Oc1ccc(C(=O)Nc2ccc(N(C)C)cc2)cc1`, for which the IC50 was 61.3 µM (inactive).

In the case of `Cc1ccc(C(=O)N2CCCC(c3ccc(Cl)cc3)=N2)cc1`, the IC50 was > 80 µM (inactive).

Take `Cc1cc(C)cc(NC(=O)Nc2ccc(NC(=O)c3ccccc3O)cc2)c1`: the IC50 is > 80 µM (inactive).

For `CCn1c(=O)cc(SCC(=O)N2CCOCC2)c2ccccc21`, the IC50 was > 80 µM (inactive).

For `O=C(Nc1ccccc1C(=O)Nc1nnc(C(F)(F)F)s1)c1ccccc1`, the IC50 was > 80 µM (inactive).

As to `Cc1ccc(/C=C2\SC(=S)N(CCCC(=O)Nc3cc(C)on3)C2=O)cc1`, the IC50 was 34.3 µM (inactive).

Turning to `CNC(=O)c1cccn(Cc2ccc(C(F)(F)F)cc2)c1=O`, the IC50 was 47.9 µM (inactive).

For the compound `CC1=CC(C)(C)Nc2ccc(OC(=O)C(Cc3ccccc3)N3C(=O)c4ccccc4C3=O)cc21` (configuration not stated), the IC50 was > 80 µM (inactive).

In the case of `COc1ccc(NS(=O)(=O)c2ccc(-c3coc(C)n3)cc2)cc1OC`, the IC50 is > 80 µM (inactive).

In the case of `Cc1cc(C)c2nc(NC(=O)C3CSC4(C)CCC(=O)N34)sc2c1` (configuration not stated), the IC50 is 32.2 µM (inactive).

Consider `COc1ccc(N(CC(=O)N2CCN(c3ccc(Cl)cc3)CC2)S(=O)(=O)c2c(C)n[nH]c2C)cc1`, for which the IC50 is > 80 µM (inactive).

As to `COc1ccc(/C=C2\SC(=S)N(CCC(=O)Nc3ccc(C(=O)O)cc3)C2=O)cc1`, the IC50 was > 80 µM (inactive).

On to `Cn1c(=O)n(C)c2cc(C(=O)Nc3ccc4c(c3)OCO4)ccc21`, for which the IC50 is 35.2 µM (inactive).

Turning to `COc1ccc(/C=N/OCC(=O)NC(c2ccccc2)c2ccccc2)cc1OC`, the IC50 is > 80 µM (inactive).

With `O=C(c1cc2nc(-c3ccccc3)cc(-c3ccccc3)n2n1)N1CCN(C(=O)c2ccco2)CC1`, the IC50 is 8.73 µM.

Consider `CCCNC(=O)CSCc1nc(-c2ccc(SC)cc2)oc1C`, for which the IC50 was 31.6 µM (inactive).

Regarding `COc1ccc(-c2ccc(C)cc2)cc1[C@H]1[C@H]2C=CC[C@@H](C)[C@@H]2C(=O)N1Cc1ccccc1`, the IC50 is > 80 µM (inactive).

Take `CCN(C(=O)CN1C(=O)NC(c2ccccc2)(c2ccc(C)c(C)c2)C1=O)C1CCCCC1` (configuration not stated): the IC50 is 48.4 µM (inactive).

Consider `CC1CN(S(=O)(=O)c2ccc(C(=O)Nc3nc(-c4cc5ccccc5o4)cs3)cc2)CC(C)O1` (configuration not stated), for which the IC50 is > 80 µM (inactive).

Consider `COc1cc(C[C@@H]2C(=O)OC[C@H]2Cc2ccc(OC)c(OC)c2)ccc1O`, for which the IC50 is > 80 µM (inactive).

In the case of `CCCCCOc1ccc(NC(=O)C(=O)NCCCn2ccnc2)cc1`, the IC50 was 4.78 µM.

In the case of `Cc1cc(C)cc(OCc2nnc(SCC(=O)c3ccccc3)o2)c1`, the IC50 was > 80 µM (inactive).

Turning to `COc1cc(-c2nc(C(=O)NCC3CCCO3)cc3c2[nH]c2ccccc23)cc(OC)c1OC` (configuration not stated), the IC50 was 12.2 µM.

As for `C(=N\Nc1nc(Nc2ccccc2)nc(N2CCOCC2)n1)/c1c[nH]c2ccccc12`, the IC50 was < 0.16 µM.

Turning to `COC(=O)C(C)Oc1cc(C)cc2oc(=O)c3c(c12)CCC3` (configuration not stated), the IC50 was 58 µM (inactive).

Regarding `C#CCN(Cc1ccccc1)S(=O)(=O)C=C`, the IC50 was 21.3 µM (inactive).

Take `CCc1cccc(NC(=O)c2ccc(CNc3c(N4CCCC4)c(=O)c3=O)cc2)c1`: the IC50 is > 80 µM (inactive).

For the compound `CCC(CO)Oc1cc(NCc2ccccc2O)c2ncn(C(C)C)c2c1` (configuration not stated), the IC50 is > 80 µM (inactive).

As for `CCN(CC(=O)Nc1c(F)cccc1F)C(=O)c1cc(S(=O)(=O)N(C)C)ccc1N1CCCC1`, the IC50 is 12.2 µM.

`Cc1ccccc1-c1cc(C(=O)Nc2sc(C(=O)OC(C)C)c(C)c2C#N)c2ccccc2n1`: the IC50 was 42.8 µM (inactive).

As to `COCCCn1c(=O)/c(=C\c2cccc(OC)c2OC)s/c1=C(/C#N)C(=O)Nc1ccc(C(=O)O)cc1`, the IC50 is > 80 µM (inactive).

Turning to `Cc1ccc(C(=O)C[n+]2cc(-c3ccc(C)cc3)n3c2CCCCC3)cc1`, the IC50 is 38.9 µM (inactive).

As for `CCc1ccc(/C=C2/SC(=S)N(CCC(=O)Nc3ccc(C(=O)O)cc3)C2=O)cc1`, the IC50 is 4.07 µM.

`O=C(NNC(=O)C12CC3CC(CC(Br)(C3)C1)C2)c1ccccc1F`: the IC50 is 12.1 µM.

For `O=C(Nc1cccc(Br)c1)c1ccc2c(c1)SC1=NS(=O)(=O)CCN12`, the IC50 was 15.7 µM.

Take `COc1ccc(-n2nnnc2S(=O)(=O)CC(=O)N2CCCCC2)cc1`: the IC50 is 0.79 µM.

For `CCSc1ncc(Cl)c(C(=O)Nc2sc3c(c2C(=O)NCc2cccnc2)CCCC3)n1`, the IC50 is > 80 µM (inactive).

As to `COc1ccc(/C=C2/SC(=S)N(CCCC(=O)Nc3ccc(O)cc3)C2=O)cc1`, the IC50 is 0.44 µM.

`Cc1ccc(-c2nc(C(=O)NCC3CCCO3)cc3c2[nH]c2ccccc23)cc1` (configuration not stated): the IC50 is 12.8 µM.

With `CN(CC1CCCO1)S(=O)(=O)c1ccc(C(=O)Nc2nc3cc4c(cc3s2)OCO4)cc1` (configuration not stated), the IC50 is > 80 µM (inactive).

As to `CCOc1ccc(/C=C2\SC(=S)N(CCC(=O)Nc3ccc(C(=O)O)cc3)C2=O)cc1`, the IC50 is 1.35 µM.

Take `COc1ccc(/C=C2\SC(=S)N(CCC(=O)Nc3cccc(O)c3)C2=O)cc1`: the IC50 was > 80 µM (inactive).

`Cc1c(CCO)c(=O)oc2n[nH]c(-c3ccccc3)c12`: the IC50 was 13.8 µM.

As to `CCN1C(=O)Nc2cccc3cccc1c23`, the IC50 was 35.2 µM (inactive).

Turning to `COc1ccccc1/C=C1\SC(=S)N(CCC(=O)Nc2cc(C)on2)C1=O`, the IC50 was 36.8 µM (inactive).

With `COc1ccccc1/C=C1\SC(=S)N(CCC(=O)Nc2nnc(C)s2)C1=O`, the IC50 was > 80 µM (inactive).

With `CCc1ccc(/C=C2\SC(=S)N(CCC(=O)NC3=NCCS3)C2=O)cc1`, the IC50 is 12.4 µM.

For the compound `CCn1c(=O)c2cc(C(=O)NCc3cccs3)sc2c2ccccc21`, the IC50 is > 80 µM (inactive).

Take `COc1cc(-c2[nH]nc3c2C(c2ccco2)C(C#N)=C(N)O3)cc(OC)c1OC` (configuration not stated): the IC50 was > 80 µM (inactive).

As to `CCc1ccc2[nH]c3nc(N/N=C/c4cccc(O)c4)nnc3c2c1`, the IC50 was > 80 µM (inactive).

As for `COc1ccc(-c2noc(CCCC(=O)O)n2)cc1`, the IC50 is 2.14 µM.

As for `CCOc1ccc(-c2nnc(SCC(=O)Nc3cc(C)on3)o2)cc1`, the half-inhibitory concentration (IC50) is 12 µM.

`O=C(C1CCC1)N1CCN(S(=O)(=O)c2ccc([N+](=O)[O-])cc2)CC1`: the IC50 is > 80 µM (inactive).

Consider `CCOC(=O)c1sc(NC(=O)c2cc(-c3ccccc3C)nc3ccccc23)c(C#N)c1C`, for which the IC50 was 19.3 µM.

In the case of `CCOc1ccc(-c2cc(CCCC(=O)NCc3ccc(C)cc3)no2)cc1`, the IC50 is > 80 µM (inactive).

`Cc1ccc(-n2c(-c3ccccc3)c[n+]3c2CCc2ccccc2-3)c(C)c1`: the IC50 is 56.7 µM (inactive).

`O=C(CCCN1C(=O)S/C(=C/C=C/c2ccccc2)C1=O)Nc1ccc(C(=O)O)cc1`: the IC50 is > 80 µM (inactive).

`Cc1cccn2c(=O)c3cc(C(=O)NC4CCCCC4)c(=N)n(CCN4CCOCC4)c3nc12`: the IC50 was > 80 µM (inactive).

In the case of `CCC(=O)N1c2ccccc2C(N(C(C)=O)c2ccccc2)CC1C` (configuration not stated), the IC50 is 61 µM (inactive).

Consider `CCOC(=O)C(=CNc1cc(C)ccc1C)C(=O)OCC`, for which the IC50 is 49.2 µM (inactive).

On to `O=C(CCCN1C(=O)S/C(=C\c2ccccc2)C1=O)NNC(=O)c1ccccc1O`, for which the IC50 was 1.64 µM.

Consider `CCOc1ccc(-c2noc(CCC(=O)O)n2)cc1`, for which the IC50 was 4.12 µM.

The record behind these values is PubChem BioAssay AID489023 (Sanford-Burnham Center for Chemical Genomics, 2010).
